According to US10633419B2, “Immunomodulators” (BRISTOL-MYERS SQUIBB COMPANY, priority 2014, dated 2020):
Like-named read-outs stand apart in the source and are kept apart here. Starred links: 1 amine or outer side, 2 acyl side, 3 side chain; linkers in the order of their positions; H or OH if unused. Positions of bridges follow the written chain, without caps; N, C: chain ends. Non-standard residues stand in square brackets, D forms with d. Residues, ends and D or L forms follow the SMILES beside them. Groups on a side chain read outwards from the residue. *: point of attachment. εLys(α-Octadecanedioyl) = O=C(O)CCCCCCCCCCCCCCCCC(=O)N[C@@H](CCCCN*)C(=O)O; X13 = O=C(O)CCCCCCCCCCCCCCC(=O)N[C@@H](CCC(=O)NCCCOCCOCCOCCCN*)C(=O)O; Trp(1-CH2COOH) = N[C@@H](Cc1cn(CC(=O)O)c2ccccc12)C(=O)O; Phe(3,4,5-F3) = N[C@@H](Cc1cc(F)c(F)c(F)c1)C(=O)O; C18 diacid = O=C(O)CCCCCCCCCCCCCCCCC(=O)*; γGlu = O=C(O)[C@H](CCC(=O)[*:2])N[*:1]; d(cisHyp) = O=C(O)[C@H]1C[C@@H](O)CN1; PEG6 = NCCOCCOCCOCCOCCOCCOCCC(=O)O; Hyp = O=C(O)[C@@H]1C[C@@H](O)CN1; NMeF = CN[C@@H](Cc1ccccc1)C(=O)O; X30 = O=C1NC2CSC(CCCCC(=O)*)C2N1; NHtetradecyl = CCCCCCCCCCCCCCN*; NMeE = CN[C@@H](CCC(=O)O)C(=O)O; Undecanoyl = CCCCCCCCCCC(=O)*; NMeNle = CCCC[C@H](NC)C(=O)O; PEG4 = NCCOCCOCCOCCOCCC(=O)O; Tle = CC(C)(C)[C@H](N)C(=O)O; Pip = O=C(O)[C@@H]1CCCCN1; dPip = O=C(O)[C@H]1CCCCN1; NMeA = CN[C@@H](C)C(=O)O; Aun = NCCCCCCCCCCC(=O)O; Dab = NCC[C@H](N)C(=O)O; Dap = NC[C@H](N)C(=O)O

Target: T1, PD-L1 (Homo sapiens, UniProt Q9NZQ7)
T1 construct: hPDL1(19-239)-TVMV-His; made in house; host or cells: HEK293T
Assay: PD-1/PD-L1 Homogenous Time-Resolved Fluorescence (HTRF) binding assay (PD-1-Ig/PD-L1-His)
Details: inhibition of PD-1-Ig binding to PD-L1-TVMV-His, read-out: HTRF IC50
In short: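 Inhibitors pre-incubated 15 min with PD-L1-His (10 nM final), then PD-1-Ig (20 nM final) added for 15 min in dPBS/0.1% BSA/0.05% Tween-20. Eu-cryptate anti-Ig (1 nM) and APC anti-His (20 nM) added, 30 min equilibration, 665/620 nm HTRF ratio read.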

T1 sequence (Q9NZQ7 with tags, fused parts or gaps): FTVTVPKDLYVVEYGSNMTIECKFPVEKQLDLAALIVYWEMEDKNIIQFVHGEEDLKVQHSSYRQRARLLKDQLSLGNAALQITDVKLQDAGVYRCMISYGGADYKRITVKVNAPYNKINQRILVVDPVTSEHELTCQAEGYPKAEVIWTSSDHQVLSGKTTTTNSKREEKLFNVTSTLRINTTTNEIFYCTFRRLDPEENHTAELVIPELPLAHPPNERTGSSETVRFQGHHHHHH

IC50 (value given as range class) [µM]	IC50 (value given as number) [µM]	SMILES
0.0003 to 0.0099		CCCC[C@H]1C(=O)N(C)[C@@H](CCCC)C(=O)N[C@@H](CC(C)C)C(=O)N[C@H](C(=O)NCCCC[C@H](NC(=O)CCCCCCCCCCCCCCCCC(=O)O)C(=O)O)CSCC(=O)N[C@@H](Cc2ccc(O)cc2)C(=O)N(C)[C@@H](C)C(=O)N[C@@H](CC(N)=O)C(=O)N2CCC[C@H]2C(=O)N[C@@H](CN)C(=O)N[C@@H](CC(C)C)C(=O)N2C[C@H](O)C[C@@H]2C(=O)N[C@@H](Cc2c[nH]c3ccccc23)C(=O)N[C@@H](CCN)C(=O)N[C@@H](Cc2cn(CC(=O)O)c3ccccc23)C(=O)N1C [Example 11143] ({CH2CO}-Y[NMeA]NP[Dap]L[d(cisHyp)]W[Dab][Trp(1-CH2COOH)][NMeNle][NMeNle]LC-{εLys(α-Octadecanedioyl)}; thioether N-14)
0.0003 to 0.0099		CCCC[C@H]1C(=O)N2C[C@H](O)C[C@@H]2C(=O)N[C@@H](CC(=O)O)C(=O)N[C@@H](C(C)C)C(=O)N(C)[C@@H](Cc2ccccc2)C(=O)N[C@@H](Cc2ccc(O)cc2)C(=O)N2CCCC[C@@H]2C(=O)N[C@@H](Cc2c[nH]c3ccccc23)C(=O)N[C@@H](Cc2ccc(O)cc2)C(=O)N[C@@H](CC(C)C)C(=O)N[C@H](C(=O)NCC(=O)NCC(=O)NCC(=O)N[C@@H](CCCCNC(=O)CCOCCOCCOCCOCCNC(=O)CCCCC2SCC3NC(=O)NC32)C(N)=O)CSCC(=O)N[C@@H](Cc2cc(F)c(F)c(F)c2)C(=O)N(C)[C@@H](Cc2ccccc2)C(=O)N1C (stereo partly shown) [Example 3626] ({CH2CO}-[Phe(3,4,5-F3)][NMeF][NMeNle][d(cisHyp)]DV[NMeF]Y[dPip]WYLCGGGK([PEG4-X30])-NH2; thioether N-13)
0.01 to 0.099		CCCC[C@H]1C(=O)N(C)[C@@H](CCCC)C(=O)N[C@@H](CCC(=O)O)C(=O)N[C@H](C(=O)NCC(=O)N[C@@H](Cc2cn(CCOCCOCCOCCOC)nn2)C(=O)NCC(N)=O)CSCC(=O)N[C@@H](Cc2ccc(O)cc2)C(=O)N(C)[C@@H](C)C(=O)N[C@@H](CC(=O)O)C(=O)N2CCC[C@H]2C(=O)N[C@@H](Cc2c[nH]cn2)C(=O)N[C@@H](CCCCN)C(=O)N2C[C@H](O)C[C@H]2C(=O)N[C@@H](Cc2c[nH]c3ccccc23)C(=O)N[C@@H](CCCCN)C(=O)N[C@@H](Cc2c[nH]c3ccccc23)C(=O)N1C [Example 14063]
	0.456	CCCCCCCCCCC(=O)NCCCC[C@H](NC(=O)CCOCCOCCOCCOCCOCCOCCNC(=O)[C@@H]1CSCC(=O)N[C@@H](Cc2ccc(O)cc2)C(=O)N(C)[C@@H](C)C(=O)N[C@@H](CC(N)=O)C(=O)N2CCC[C@H]2C(=O)N[C@@H](CN)C(=O)N[C@@H](CCC(N)=O)C(=O)N2C[C@H](O)C[C@@H]2C(=O)N[C@@H](Cc2c[nH]c3ccccc23)C(=O)N[C@@H](CO)C(=O)N[C@@H](Cc2cn(CC(=O)O)c3ccccc23)C(=O)N(C)[C@@H](CCCC)C(=O)N(C)[C@@H](CCCC)C(=O)N[C@@H](CC(C)C)C(=O)N1)C(=O)O [Example 11062] ({CH2CO}-Y[NMeA]NP[Dap]Q[d(cisHyp)]WS[Trp(1-CH2COOH)][NMeNle][NMeNle]LC[PEG6]K(Undecanoyl)-OH; thioether N-14)
0.1 to 1.6		CCCC[C@H]1C(=O)N(C)[C@@H](CCCC)C(=O)N[C@@H](CC(C)C)C(=O)N[C@H](C(=O)NCCOCCOCCOCCOCCOCCOCCC(=O)NCCCCCCCCCCC(=O)O)CSCC(=O)N[C@@H](Cc2ccc(O)cc2)C(=O)N(C)[C@@H](C)C(=O)N[C@@H](CC(N)=O)C(=O)N2CCC[C@H]2C(=O)N[C@@H](CO)C(=O)N[C@@H](CCC(N)=O)C(=O)N2C[C@H](O)C[C@@H]2C(=O)N[C@@H](Cc2c[nH]c3ccccc23)C(=O)N[C@@H](CO)C(=O)N[C@@H](Cc2cn(CC(=O)O)c3ccccc23)C(=O)N1C [Example 11060] ({CH2CO}-Y[NMeA]NPSQ[d(cisHyp)]WS[Trp(1-CH2COOH)][NMeNle][NMeNle]LC[PEG6][Aun]-OH; thioether N-14)
0.0003 to 0.0099		CCCC[C@H]1C(=O)N2C[C@H](O)C[C@@H]2C(=O)N[C@@H](CC(=O)O)C(=O)N[C@@H](C(C)C)C(=O)N(C)[C@@H](Cc2ccccc2)C(=O)N[C@@H](Cc2ccc(O)cc2)C(=O)N(C)[C@@H](CCC(=O)O)C(=O)N[C@@H](Cc2c[nH]c3ccccc23)C(=O)N[C@@H](Cc2ccc(O)cc2)C(=O)N[C@@H](CC(C)C)C(=O)N[C@H](C(=O)NCC(=O)NCC(=O)NCC(=O)N[C@@H](CCCCN)C(N)=O)CSCC(=O)N[C@@H](Cc2cc(F)c(F)c(F)c2)C(=O)N(C)[C@@H](Cc2ccccc2)C(=O)N1C [Example 3214] ({CH2CO}-[Phe(3,4,5-F3)][NMeF][NMeNle][d(cisHyp)]DV[NMeF]Y[NMeE]WYLCGGGK-NH2; thioether N-13)
0.1 to 1.6		CCCC[C@H]1C(=O)N(C)[C@@H](CCCC)C(=O)N[C@@H](CC(C)C)C(=O)N[C@H](C(=O)NCC(=O)N[C@@H](CC(=O)O)C(=O)NCCCOCCOCCOCCCNC(=O)CC[C@H](NC(=O)CCCCCCCCCCCCCCC(=O)O)C(=O)O)CSCC(=O)N[C@@H](Cc2ccc(O)cc2)C(=O)N(C)[C@@H](C)C(=O)N[C@@H](CC(N)=O)C(=O)N2CCC[C@H]2C(=O)N[C@@H](CN)C(=O)N[C@@H](CC(C)C)C(=O)N2C[C@H](O)C[C@@H]2C(=O)N[C@@H](Cc2c[nH]c3ccccc23)C(=O)N[C@@H](CCN)C(=O)N[C@@H](Cc2cn(CC(=O)O)c3ccccc23)C(=O)N1C [Example 11162] ({CH2CO}-Y[NMeA]NP[Dap]L[d(cisHyp)]W[Dab][Trp(1-CH2COOH)][NMeNle][NMeNle]LCGD-X13; thioether N-14)
0.0003 to 0.0099		CCCC[C@H]1C(=O)N(C)[C@@H](CCCC)C(=O)N[C@@H](CC(C)C)C(=O)C[C@H](C(=O)NCC(=O)N[C@@H](CCC(=O)O)C(=O)NCCCOCCOCCOCCCNC(=O)CC[C@H](NC(=O)CCCCCCCCCCCCCCCCC(=O)O)C(=O)O)CSCC(=O)N[C@@H](Cc2ccc(O)cc2)C(=O)N(C)[C@@H](C)C(=O)N[C@@H](CC(N)=O)C(=O)N2CCC[C@H]2C(=O)N[C@@H](CN)C(=O)N[C@@H](CC(C)C)C(=O)N2C[C@H](O)C[C@H]2C(=O)N[C@@H](Cc2c[nH]c3ccccc23)C(=O)N[C@@H](CCN)C(=O)N[C@@H](Cc2cn(CC(=O)O)c3ccccc23)C(=O)N1C [Example 11167]
0.1 to 1.6		CCCCCCCCCCCCCCNC(=O)CNC(=O)CNC(=O)[C@@H]1CSCC(=O)N[C@@H](Cc2ccc(O)cc2)C(=O)N(C)[C@@H](C)C(=O)N[C@@H](CC(N)=O)C(=O)N2CCC[C@H]2C(=O)N[C@@H](CCN)C(=O)N[C@@H](CC(C)C)C(=O)N2C[C@H](O)C[C@H]2C(=O)N[C@@H](Cc2c[nH]c3ccccc23)C(=O)N[C@@H](C(C)(C)C)C(=O)N[C@@H](Cc2c[nH]c3ccccc23)C(=O)N(C)[C@@H](CCCC)C(=O)N(C)[C@@H](CCCC)C(=O)N[C@@H](CCCNC(=N)N)C(=O)N1 [Example 11107] ({CH2CO}-Y[NMeA]NP[Dab]L[Hyp]W[Tle]W[NMeNle][NMeNle]RCGG-NHtetradecyl; thioether N-14)
0.01 to 0.099		CCCC[C@H]1C(=O)N(C)[C@@H](CCCC)C(=O)N[C@@H](CC(C)C)C(=O)N[C@H](C(=O)NCCOCCOCCOCCOCCOCCOCCC(=O)O)CSCC(=O)N[C@@H](Cc2ccc(O)cc2)C(=O)N(C)[C@@H](C)C(=O)N[C@@H](CC(N)=O)C(=O)N2CCC[C@H]2C(=O)N[C@@H](CO)C(=O)N[C@@H](CCC(N)=O)C(=O)N2C[C@H](O)C[C@@H]2C(=O)N[C@@H](Cc2c[nH]c3ccccc23)C(=O)N[C@@H](CN)C(=O)N[C@@H](Cc2cn(CC(=O)O)c3ccccc23)C(=O)N1C [Example 11046] ({CH2CO}-Y[NMeA]NPSQ[d(cisHyp)]W[Dap][Trp(1-CH2COOH)][NMeNle][NMeNle]LC[PEG6]-OH; thioether N-14)
0.01 to 0.099		CCCC[C@H]1C(=O)N(C)[C@@H](CCCC)C(=O)N[C@@H](CCC(=O)O)C(=O)N[C@H](C(=O)NCC(=O)N[C@@H](Cc2cn(CC[C@H](NC(=O)CCCCCCCCCCCCCCC(=O)O)C(=O)O)nn2)C(N)=O)CSCC(=O)N[C@@H](Cc2ccc(O)cc2)C(=O)N(C)[C@@H](C)C(=O)N[C@@H](CC(N)=O)C(=O)N2CCC[C@H]2C(=O)N[C@@H](CN)C(=O)N[C@@H](CC(C)C)C(=O)N2C[C@H](O)C[C@H]2C(=O)N[C@@H](Cc2c[nH]c3ccccc23)C(=O)N[C@@H](CO)C(=O)N[C@@H](Cc2cn(CC(=O)O)c3ccccc23)C(=O)N1C [Example 14070]
	0.0914	CCCCCCCCCCC(=O)NCCCC[C@H](NC(=O)[C@H](CC(=O)O)NC(=O)CNC(=O)[C@@H]1CSCC(=O)N[C@@H](Cc2ccc(O)cc2)C(=O)N(C)[C@@H](C)C(=O)N[C@@H](CC(N)=O)C(=O)N2CCC[C@H]2C(=O)N[C@@H](Cc2cnc[nH]2)C(=O)N[C@@H](CCC(=O)O)C(=O)N2C[C@H](O)C[C@H]2C(=O)N[C@@H](Cc2c[nH]c3ccccc23)C(=O)N[C@@H](CO)C(=O)N[C@@H](Cc2c[nH]c3ccccc23)C(=O)N(C)[C@@H](CCCC)C(=O)N(C)[C@@H](CCCC)C(=O)N[C@@H](CC(C)C)C(=O)N1)C(N)=O [Example 11009] ({CH2CO}-Y[NMeA]NPHE[Hyp]WSW[NMeNle][NMeNle]LCGDK(Undecanoyl)-NH2; thioether N-14)
0.0003 to 0.0099		CCCC[C@H]1C(=O)N(C)[C@@H](CCCC)C(=O)N[C@@H](CC(C)C)C(=O)N[C@H](C(=O)NCC(=O)N[C@@H](CNC(=O)CC[C@H](NC(=O)CCCCCCCCCCCCCCCCC(=O)O)C(=O)O)C(=O)O)CSCC(=O)N[C@@H](Cc2ccc(OC)cc2)C(=O)N2CCCC[C@H]2C(=O)N[C@@H](CC(N)=O)C(=O)N2CCC[C@H]2C(=O)N[C@@H](Cc2c[nH]cn2)C(=O)N[C@@H](CCC(N)=O)C(=O)N2C[C@H](O)C[C@H]2C(=O)N[C@@H](Cc2c[nH]c3ccccc23)C(=O)N[C@@H](CCN)C(=O)N[C@@H](Cc2cn(CC(=O)O)c3ccccc23)C(=O)N1C [Example 13154] ({CH2CO}-Y(Me)[Pip]NPHQ[Hyp]W[Dab][Trp(1-CH2COOH)][NMeNle][NMeNle]LCG[Dap]([γGlu-C18 diacid])-OH; thioether N-14)
